From PubChem BioAssay AID602251 (NMMLSC, 2012)
The source made the active and inactive calls.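 The calls were made as follows: active = fitted concentration giving half of the maximal binding block below 66 µM; inactive = the rest.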

Molecular target: anti-desmoglein 3 scFv antibody binding to human desmoglein 3 (DSG3)
Test: blockers of pemphigus antibody–desmoglein 3 interaction – biochemical, DSG3-coupled beads, scFv-GFP, flow cytometry, Cherry Pick 1, dose response (AID 602251);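 as to binding response, lower = inhibition: 100% = DMSO vehicle binding and 0% = soluble DSG3 blocking control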
Conditions: for binding response, lower = inhibition: at 66.1 µM (top of the series)

Row | SMILES | EC50 [µM] | binding response, lower = inhibition
1 | Cc1ccc(NC(=O)CN2C(=O)N/C(=C/c3cccn3-c3ccc(C(=O)O)cc3)C2=O)cc1 | 48.4 | 
2 | COc1ccc(-c2cc(=O)oc3cc(OCC(=O)Nc4ccccn4)ccc23)cc1 |  | inactive
3 | COc1ccccc1NC(=O)c1cc(C(=O)Nc2ccccc2OC)cc([N+](=O)[O-])c1 | 25.3 | 
4 | COc1ccc(Cl)c(NC(=O)NCCN2CCN(c3ccccc3)CC2)c1 |  | inactive
5 | O=[N+]([O-])c1ccc(N=NNc2ccc([N+](=O)[O-])cc2)cc1 | 58.8 | 
6 | CC(=O)c1c(C)n(-c2ccc(C)cc2)c2ccc(O)cc12 |  | inactive
7 | COc1ccc(N=C2S/C(=C\c3ccc(OCC(=O)O)cc3)C(=O)N2CCc2c[nH]c3ccccc23)cc1 | 15.8 | 
8 | COc1cccc(C(C(=O)NC2CCCCC2)N(CCN2CCOCC2)C(=O)C2COc3ccccc3O2)c1 (stereo not drawn) |  | inactive
9 | COc1cc(C(=O)Nc2cccc(-c3nc4cc(C)ccc4o3)c2C)cc(OC)c1OC | 24.6 | 
10 | CN(C)c1nc(N)ncc1-c1ccc(Oc2ccccc2)cc1 |  | inactive
11 | CC(=O)Nc1ccc(-c2cc(-c3ccccc3)nc(-c3ccccc3)n2)cc1 |  | inactive
12 | Cn1c(SCC(=O)NC2CCCCC2)nnc1-c1cc2cc(Cl)ccc2o1 | 21.1 | 
13 | COc1ccccc1C(=O)Nc1ccc(Oc2ncnc3sc(-c4ccccc4)cc23)cc1 |  | inactive
14 | O=C(COC(=O)c1ccc(S(=O)(=O)N2CCc3ccccc3C2)cc1)NC1CCS(=O)(=O)C1 (stereo not drawn) |  | inactive
15 | O=C(COC(=O)Cc1ccc(-c2ccccc2)cc1)NCc1ccc(F)cc1 |  | inactive
16 | O=C(Cc1ccccc1)Nc1ccc(NC(=O)c2cccs2)cc1Cl |  | inactive
17 | Cc1cc(=O)oc2c(C)c(OCC(=O)NCc3ccccn3)ccc12 |  | inactive
18 | Cc1sc(NC(=O)CSc2nnc3scc(-c4ccccc4)n23)c(C#N)c1C |  | inactive
19 | CCC(=C/c1sc2ccc3ccccc3c2[n+]1C)/C=C1\Sc2ccc3ccccc3c2N1C | 25.9 | 
20 | COc1ccc(CNC(=O)c2ccc(-c3ccccc3)cc2)cc1OC |  | inactive
21 | COc1ccc(C(=O)Nc2ccc(Oc3ncnc4sc(-c5ccccc5)cc34)cc2)cc1OC |  | inactive

Row | SMILES | EC50 [µM] | binding response, lower = inhibition
22 | Cc1ccc2oc(-c3ccc(NC(=O)CC(C)C)cc3)nc2c1 |  | inactive
23 | COc1ccccc1NC(=O)Cn1nnc(-c2ccccc2NC(=O)c2cc3ccccc3oc2=O)n1 | 25.8 | 
24 | CC(=O)c1ccc(NC(=O)CSc2ccsc2[N+](=O)[O-])cc1 |  | inactive
25 | Cc1nc2ccccc2nc1OCC(=O)Nc1ccc2ccccc2c1 |  | inactive
26 | O=C(Nc1ccc(NS(=O)(=O)c2ccccc2)cc1)c1ccc(Cl)cc1 |  | inactive
27 | CS(=O)(=O)c1ccc2nc(NC(=O)Nc3ccccc3F)sc2c1 |  | inactive
28 | O=C(Nc1ccc(F)cc1)Nc1ccc([N+](=O)[O-])cn1 | 21.5 | 
29 | O=c1c2c([N+](=O)[O-])cc([N+](=O)[O-])cc2sn1Cc1ccccc1 | 9.8 | 
30 | O=c1c2ccccc2sn1-c1nccs1 | 12.7 | 
31 | CCOc1ccc(NC(=O)c2ccc(NC(=O)CSc3nc4ccccc4c(=O)[nH]3)cc2)cc1 |  | inactive
32 | O=C(COc1cccnc1[N+](=O)[O-])Nc1cc(S(=O)(=O)N2CCCCC2)ccc1Cl |  | inactive
33 | CCC(=O)N1CCc2cc(S(=O)(=O)N(C)c3ccc(Br)cc3)ccc21 |  | inactive
34 | O=C(NCCCN1CCOCC1)c1cc(-c2cccc(Br)c2)nc2ccccc12 |  | inactive
35 | COc1ccc(NC(=O)CSc2nc3c([nH]c4ccccc43)c(=O)n2C)c(OC)c1 | 22.4 | 
36 | COc1ccc(CCNC(=O)COc2ccc(-c3ccc(C)cc3)cc2)cc1OC |  | inactive
37 | OCc1cn(-c2ccccc2)nc1-c1ccc(-c2nn(-c3ccccc3)cc2CO)cc1 |  | inactive
38 | Cn1c2ccccc2c(=O)c2c(=O)n(Cc3ccco3)c(COc3ccccc3)nc21 |  | inactive
39 | CC(=O)Nc1cc(=O)c2cccnc2[nH]1 | 25.4 | 
40 | Cc1c(OCC(=O)NCc2ccccn2)ccc2c(-c3ccccc3)cc(=O)oc12 |  | inactive
41 | Cc1ccc(-c2nc3sc(C#N)c(N)n3c(=O)c2C#N)cc1 |  | inactive
42 | CCc1ccc(-c2cc(C(=O)Nc3ccc(S(=O)(=O)NC(C)=O)cc3)c3ccccc3n2)cc1 |  | inactive

Row | SMILES | EC50 [µM] | binding response, lower = inhibition
43 | Nc1ccc2nc(-c3cccc(-c4nc5ccc(N)cc5[nH]4)c3)[nH]c2c1 | 65.2 | 
44 | CC(=O)Nc1cccc(NC(=O)CSc2ccc(C(F)(F)F)cc2[N+](=O)[O-])c1 |  | inactive
45 | CCOc1ccccc1NCc1cc(=O)oc2cc(C)c(O)cc12 |  | inactive
46 | Cc1c([N+](=O)[O-])cc(C(=O)Nc2ccc(NC(=O)c3ccco3)cc2)cc1[N+](=O)[O-] |  | inactive
47 | COc1ccc2c(c1)c(N=NC(N)=S)c(O)n2CC(=O)c1ccccc1 |  | inactive
48 | Cc1cccc(NC(=O)Cn2nnc(C(=O)NCc3cccs3)c2N)c1C |  | inactive
49 | COc1ccc(C(=O)Nc2ccc(NC(=O)c3cnccn3)cn2)cc1 |  | inactive
50 | O=C(Nc1ccc(Nc2ccncc2)cc1)c1ccc(Nc2ccnc3ccc([N+](=O)[O-])cc23)cc1 |  | inactive
51 | CCN(CC)c1ccc(NC(=O)CCCCC(=O)Nc2ccc(N(CC)CC)cc2)cc1 | 27.2 | 
52 | O=C(O)CCC(=O)NCCC1=c2ccccc2=N/C1=C\c1c(O)n(Cc2ccc(F)cc2)c(=S)[nH]c1=O |  | inactive
53 | Cc1ccc(C(C)C)c(OCC(=O)Nc2ccc(N3CCN(S(C)(=O)=O)CC3)cc2)c1 | 20.9 | 
54 | CSc1ccccc1OCc1cc(C(=O)NCCC2=CCCCC2)no1 |  | inactive
55 | Cc1ccc(NC(=O)CSc2ccc(C(N)=O)cc2[N+](=O)[O-])cc1C |  | inactive
56 | CCOc1ccc(Nc2ncnc3c2cnn3-c2ccccc2)cc1 |  | inactive
57 | O=C(NC1CCCCC1)C(c1ccc(O)cc1)N(CC1CCCO1)C(=O)C1COc2ccccc2O1 (stereo not drawn) | 37.7 | 
58 | CN(C)Cc1cc(O)c(CN(C)C)cc1O |  | inactive
59 | COc1ccc2cc(C#N)c(SCC(=O)N3CC(=O)Nc4ccccc43)nc2c1 |  | inactive
60 | COc1ccc(OC)c(NC(=O)c2nc(-c3ccccc3)oc2C)c1 |  | inactive
61 | NC(=O)c1ccc(NC(=O)CSc2nnc(-c3ccc4c(c3)OCO4)o2)cc1 |  | inactive
62 | COc1cc2sc3ccc(C#Cc4ccccn4)cc3c(=O)c2cc1OC |  | inactive
63 | Cc1cc(NC(=O)CSc2nnc(-c3c[nH]c4ccccc34)n2-c2ccc(F)cc2)no1 |  | inactive

Row | SMILES | EC50 [µM] | binding response, lower = inhibition
64 | NS(=O)(=O)c1ccc(-c2ccc(/C=C3\SC(=S)N(C4CCS(=O)(=O)C4)C3=O)o2)cc1 (stereo not drawn) |  | inactive
65 | Nc1ccc2nc3c(=O)[nH]c(=S)[nH]c3nc2c1 | 39.1 | 
66 | O=C(Nc1ccc(N2CCN(C(=O)c3ccccc3)CC2)cc1)c1cc2ccccc2o1 |  | inactive
67 | O=C(Nc1cc(Cl)ccc1Cl)c1ccc(OC(=O)c2ccco2)cc1 |  | inactive
68 | O=C1c2ccccc2C(=O)N1Cc1nn2c(-c3ccc(Cl)cc3)nnc2s1 | 36 | 
69 | O=C(Nc1ccc2oc(=O)ccc2c1)c1ccc(-c2ccccc2[N+](=O)[O-])o1 |  | inactive
70 | S=c1[nH]ncn1/N=C/c1ccccc1 |  | inactive
71 | O=C(N/N=C1/C(=O)c2cccc3cccc1c23)c1ccc(Cl)cc1 |  | inactive
72 | CCOC(=O)Cc1csc(-n2sc3ccccc3c2=O)n1 | 15 | 
73 | O=C(Nc1cccc([N+](=O)[O-])c1)c1ccc(CSc2ccccc2)cc1 |  | inactive
74 | NS(=O)(=O)c1ccc(NC(=O)c2cc(-c3cccs3)nc3ccccc23)cc1 | 17.3 | 
75 | O=C(COc1cc2oc(=O)c3c(c2cc1Cl)CCC3)Nc1ccccn1 |  | inactive
76 | CCc1ccc(OCC(=O)Nc2ccc(N3CCN(C(=O)c4ccccc4)CC3)cc2)cc1 |  | inactive
77 | COc1ccc(C2=C(Nc3ccc(F)cc3)c3ccccc3C2=O)cc1 |  | inactive
78 | CC(C)OC(=O)CSc1nc2c(cc1C#N)CCCCC2 |  | inactive
79 | O=C(NC1CCCC1)C(c1ccc(O)cc1)N(CC1CCCO1)C(=O)C1COc2ccccc2O1 (stereo not drawn) |  | inactive
80 | COCCCNC(=O)c1c(N)n(-c2cccc(S(N)(=O)=O)c2)c2nc3ccccc3nc12 |  | inactive
81 | CCOc1ccc(N2CSC(=S)N(c3ccc(OCC)cc3)C2)cc1 |  | inactive
82 | O=C(COC(=O)c1ccc(S(=O)(=O)N2CCCC2)cc1)NCc1ccc(Cl)cc1 |  | inactive
83 | Nc1ncnc2oc(-c3ccco3)c(-c3ccco3)c12 |  | inactive
